In patent publication US6369092B1, “Method for treating neoplasia by exposure to substituted benzimidazole derivatives” (Cell Pathways, Inc., priority 1998, dated 2002):

## CCCc1nc2ccc(NC(=O)OC(C)(C)C)cc2n1Cc1ccccc1Cl [I, 6-t-Butoxycarbonylamino-1-(2-Chlorobenzyl)-2-n-Propylbenzimidazole]
  melting point: 166 to 168 °C
